From ChEMBL document CHEMBL3507680, “University of Dundee, Gates Library screen for HepG2 cell viability”

Test: Human HepG2 cell viability assay in 384 well format
Format: toxicity, cell-based
Design: dose 125 nL, time 70.5 hour; cytotoxicity at 70.5 h: concentration not given beside the values
Details: HepG2 cells, read-out: Inhibition

| Structure (SMILES) | cytotoxicity at 70.5 h |
| --- | --- |
| COc1ccc(Cl)cc1C(=O)NCc1cnn(C)c1C | -0.564% |
| CCc1nc(N2CCN(Cc3ncccc3C)CC2)c2cnn(C)c2n1 | -4.75% |
| CC(C(=O)N(C)Cc1noc(C2CCC2)n1)N1CCc2ccccc2C1 (centres undefined) | 23.9% |
| CC(C)=CCN1C(=O)[C@H]2CC[C@@H]1CN(c1ncccc1F)C2 | -22.9% |
| O=C(CO)N1CCC2(CC1)CC(=O)N(Cc1cc(F)cc(F)c1)C2 | -1.76% |
| CCC(CO)N(Cc1cccc(-n2cccn2)c1)Cc1ccccn1 (centres undefined) | 8.06% |
| CC(c1ccncn1)N(C)S(=O)(=O)NCc1ccccc1 (centres undefined) | 47.6% |
| CCC(C)N(Cc1sccc1C)C(=O)c1ccc(S(C)(=O)=O)cc1 (centres undefined) | -4.15% |
| CCOc1ccc(-c2c(-c3ccccc3)ncn2C2CCNC2)cn1 (centres undefined) | -12.8% |
| OCc1ccc(-c2c(-c3ccccc3)ncn2CCN2CCOCC2)o1 | 16.6% |
| CN1CC2(CCN(C(=O)CCc3nc4cccnc4n3C)C2)OC1=O (centres undefined) | 15.3% |
| COCC(=O)NCC1CCCN(Cc2cc3ccccc3[nH]2)C1 (centres undefined) | -13.5% |
| CCc1nccc(CN2CCCC(CNC(=O)c3ccccn3)C2)n1 (centres undefined) | -3.62% |
| Cc1ccc(CSc2nc(N)cc(NCCC(=O)N3CCCC3)n2)cc1 | -4.18% |
| NCC1Cc2cccc(-c3ccc(O)c(F)c3)c2O1 (centres undefined) | -13.6% |
| CC(=O)Nc1ccsc1C(=O)N1CC[C@@H]2CC[C@H](C1)N2C | -6.78% |
| Cc1ccc(N2C[C@H](O)[C@@H](N3CCN(c4ccccn4)CC3)C2)nn1 | -11.3% |
| Cc1ccccc1N1CCCN(C(=O)CCc2ccncc2)CC1 | -9.24% |
| Cc1ccc(OC2(C(=O)O)CCN(C(=O)c3ccsc3)CC2)cn1 | -4.13% |
| CCCN1CCC(CC(=O)NCc2cc(O)ncn2)CC1 | -11.6% |
| Cc1ccccc1NC(=O)N1CCN(C(=O)C2CC2)[C@@H]2CS(=O)(=O)C[C@@H]21 | -6.63% |
| Clc1cccc2c1CCN(Cc1nc(CC3CC3)no1)C2 | -5.71% |
| COc1ccc2[nH]c(CNc3cc(C4CCNCC4)nc(C)n3)cc2c1 | -3.5% |
| CC(C)=CCN1C[C@H]2CC[C@@H]1CN(Cc1cc(=O)[nH]c(=O)[nH]1)C2 | -3.94% |
| CCN(CCc1nc2cc(C)ccc2[nH]1)C(=O)COC | -4.93% |
| Cc1ccc2[nH]c(CN(C)Cc3n[nH]c4c3CCC4)nc2c1 | -3.51% |
| COc1cccc(OC)c1OCCN1C(=O)CCNC1=O | 26.5% |

| Structure (SMILES) | cytotoxicity at 70.5 h |
| --- | --- |
| Cc1ccccc1C(=O)NC[C@@H]1CCN(C(=O)CN2CCCC2)C[C@H]1O | -5.06% |
| CN(Cc1cnc(N)nc1)C(=O)c1coc(COc2ccccc2)n1 | -2.22% |
| CC(C)c1nnc(NCc2cc3n(n2)CCNC3)s1 | -8.56% |
| CC(=O)NCCC1CCCCN1C(=O)c1cccc(CCC(C)(C)O)c1 (centres undefined) | -6.03% |
| CCNC(=O)[C@@H]1C[C@H](N)CN1Cc1ccc(-c2cc[nH]n2)o1 | 9.98% |
| COC(=O)C1CCCN1C(=O)c1cc(CC(C)C)no1 (centres undefined) | -1.76% |
| O=C(O)C1c2nc[nH]c2CCN1Cc1cc(-c2ccccc2)no1 (centres undefined) | -4.98% |
| COCCN(C)C[C@@H]1CN(C(=O)c2ccc3c(c2)OCO3)C[C@@H]1CO | -12.8% |
| CCN(CC)C(=O)Cn1cc(C(=O)NCCCc2scnc2C)nn1 | -4.02% |
| Cc1ccsc1C(=O)NCc1cccnc1N(C)CCc1ccccn1 | -7.98% |
| COCCN1CCC(C(=O)N(C)CCOc2ccc(C)cc2Cl)C1 (centres undefined) | 20.7% |
| O=C(c1cnnn1-c1ccccc1)N1CCCC(c2ccn[nH]2)C1 (centres undefined) | 48.8% |
| O=c1[nH]c(-c2cccnc2)nc2c1CCN(S(=O)(=O)N1CCCC1)C2 | -12% |
| COc1ccc(OC2CCN(C(=O)CCc3n[nH]c(N)n3)CC2)cc1 | 21.5% |
| COc1cccc(C(=O)N2C[C@H]3CC[C@@H]2CN(Cc2cscn2)C3)c1 | -23.3% |
| CCn1c(CC2CCN(C(=O)C3CNCCO3)CC2)nn(C)c1=O (centres undefined) | -16.2% |
| COCCCN1C(=O)CC[C@H]2CN(Cc3cc4ccccc4o3)CC[C@H]21 | -1.98% |
| Cc1cc(N2CCN(C(=O)CCc3scnc3C)CC2)nc(N)n1 | 18.7% |
| CCOc1cccc(CN2CCCC(Nc3ccc(F)cc3)C2)c1O (centres undefined) | -6.06% |
| Cn1ccc2c(-c3nccc(N)n3)ccnc21 | 5.54% |
| CCn1ncnc1C1CC(=O)NCc2nc(N3CCOCC3)sc21 (centres undefined) | -20.5% |
| O=C(CCN1CCCO1)N1CC[C@@H](c2ccc3ccccc3c2)[C@H](O)C1 | 0.165% |
| CC(C)c1nccn1C(C)C(=O)N1CCN(S(C)(=O)=O)CC1 (centres undefined) | -9.53% |
| COc1ccccc1CN(C)C(=O)CN1C(=O)OC[C@@H]1c1ccccc1 | 19.7% |
| CCc1nc(C)c([C@H]2CN(C)C[C@@H]2C(=O)NC(C)(C)c2ccccc2)[nH]1 | -6.37% |
| CCc1cc(N2CCC(NCCc3ccc(C)o3)CC2)nc(C)n1 | -16.4% |
| Cc1cc(C2CCCN2C(=O)Cn2c(C)cc(=O)c3ccccc32)on1 (centres undefined) | -6.42% |
